Three compounds from patent US4223034A, “Aniline derivatives” (Beecham Group Limited, priority 1977, dated 1980) can be followed below.

Broadly, the ED50 is the dose at which the effect has come halfway, by size or by number of responders. One may read the LD50 as the dose at which mortality reaches 50%.

Data set [1] has as its system amphetamine induced stereotypy. The data set can be described thus: amphetamine stereotype test (antagonism of amphetamine induced stereotypy). The data set is classed as in vivo, rats. To be noted: for ED50: Rattus norvegicus, sc.
Data set [2] is described as follows: in vivo. To be noted: sc.
A short description of another data set: anti-catepressan test. Format: in vivo. The note with it: per oral. How it is done: (§1) a. […] On the anti-catepressan test [based on Costal et al, Europ. […] The LD50 of the compound of Example 3 is about 500 mg/kg per oral in the mouse.
Data set [3] can be described thus: in vivo. To be noted: mouse, po. How it is done:
as §1

[4] abbreviates: S.C., Table 1, read-out: ED50, antagonism of amphetamine induced stereotypy.

Where two headings read alike, the source gives them in different places.

Take `CN(C)CCCN1c2ccccc2Sc2ccc(Cl)cc21` [Chlorpromazine, reference compound]: the ED50 in data set [1] (setting [4]) was found to be 1 mg/kg; in the data set “in vivo [2]”, 3 mg/kg. The “Ratio catalepsy / anti-sterotypy” value in the data set on catalepsy (ratio of ED50 values S.C., Table 1) was determined as 3.

On to `COc1cc(N)c(Cl)cc1NC(=O)C1CCN(Cc2ccccc2)CC1` [Example 3, 5-Amino-4-chloro-2-(1^1-benzylpiperidine-4-carboxamido)-anisole], for which the ED50 came to 0.2 mg/kg in data set [1] (setting [4]); 0.2 mg/kg in data set [1] (rats, administered sub-cutaneously, read-out: ED50, amphetamine stereotype test); 5 mg/kg in the data set “anti-catepressan test”; 6 mg/kg in “in vivo [2]”. Moreover, in data set [1] (as judged by amphetamine induced stereotypy test), the “anti-psychotic or neuroleptic activity (in words)” value was “have anti-psychotic or neuroleptic activity”. The compound also displayed an LD50 in the data set “in vivo [3]” of approximately 500 mg/kg. Further, the “propensity to induce catalepsy relative to anti-stereotypy activity (in words)” value with catalepsy (in vivo) is recorded as “weaker propensity to induce catalepsy”. Besides, in the data set with catalepsy (in vivo, sc), the “Ratio catalepsy / anti-sterotypy” value stood at 30.

As for `O=C(CCCN1CCC(O)(c2ccc(Cl)cc2)CC1)c1ccc(F)cc1` [Haloperidol, reference compound], the ED50 worked out at 0.05 mg/kg in data set [1] (setting [4]) and 0.3 mg/kg in the data set “in vivo [2]”.
